We go through four molecules from patent publication US10316079B2, “Monoclonal antibody against muramyl peptides” (priority 2012, dated 2019).

Experiment [1] deals with binding of 2E7 to N-acetylmuramyl-L-alanyl-D-isoglutamine conjugated to OVA. The experiment in a line: Competitive ELISA for antigen specificity of 2E7. The following applies: concentration dependent, compared with N-acetylmuramyl-L-alanyl-D-isoglutamine. The arrangement: species or system mouse. From the text:
To enhance the antigenicity of the MDPs, these molecules were conjugated to the human serum albumin (HSA) using a linker molecule. The carboxylic acid moiety of MDPs was first coupled to N-Boc-ethylenediamine, and then the Boc protection group was removed and the resulting amine was linked to HSA with glutaraldehyde. […] The MDP-HSA conjugates were then used to immunize BALB/c mice. Serum antigen-specific titers of the immunized mice were examined by enzyme-linked immunosorbent assay (ELISA) against MDPs conjugated to ovalbumin (OVA) using the same linkage strategy as described above. Generation of hybridoma cell lines, screening of antibody-producing clones, preparation and purification of mAbs, and mAb isotyping were carried out by following standard protocols. Antigen specificity of a mAb was determined using competitive ELISA to test the ability of different MDPs and constituent moieties to inhibit the binding of a mAb to the MDP originally used as antigen for immunization.

Experiment [2] relates to bacteria of the mouse microbiota. The experiment in a line: Blood MP level in mice fed amoxicillin, competitive ELISA using 2E7. It is filed as in vivo. The following applies: amoxicillin 100 mg/kg fed at 12-h intervals, 4 h after each feeding. The method, then:
Amoxicillin was administered orally to 50 mice at 12-h intervals and three mice were sacrificed every 4 h to collect blood for peptidoglycan quantification by ELISA. […] Serial blood samples were taken. Time for blood draw and IV injection are indicated.
The MP level in serum was determined by competitive ELISA using an example of the antibody of the present disclosure, i.e. 2E7.

In another experiment the test system is Escherichia coli. Nature of the experiment: MPs released into culture supernatant with amoxicillin, competitive ELISA using 2E7. The following applies: 40 μg per ml amoxicillin added at OD600=1.5; vs untreated culture. It counts as cell-based. The method, then: (§1) Power Fit equation y=a*(x−b)^c using CurveExpert Basic. The standard curve was used to determine the peptidoglycan to concentration in a sample. […] Both bacteria were grown to OD600=1.5. Each culture was divided into two, and one treated with 40 μg/ml amoxicillin (Atex) and the other untreated. Aliquots were collected at the indicated times and the amount of MPs in the supernatant was determined by competitive ELISA. […] After removing unbound antibodies by PBS washes, the cells were incubated with a FITC-labeled anti-mouse IgG Ab before fluorescence microscopic examination.
(§2) For this test, Gram-positive bacterium Staphylococcus aureus, which has a thick peptidoglycan layer, and […] Escherichia coli, which has a thin peptidoglycan layer, were selected and grown in the presence or absence of amoxicillin. The culture was grown to a density of OD600=1.5 and then divided into two equal aliquots. To one aliquot, amoxicillin was added to a final concentration of 40 μg per ml, and to the other aliquot, no drug was added. Both cultures were allowed to continue to grow. Aliquots of cultures were collected at timed intervals and cells were removed by centrifugation. The amount of MPs in the supernatant was determined by competitive ELISA using 2E7.
On the technique in general: An ELISA detects its analyte on a solid surface through an enzyme-linked reagent.

The subject of another experiment is Staphylococcus aureus. The experiment is described as above. It is filed as cell-based. Conditions: 40 μg per ml amoxicillin added at OD600=1.5; vs untreated culture. The method, then:
as §1, §2

Regarding `CC(=O)N[C@H]1C(O)O[C@H](CO)[C@@H](O)[C@@H]1O[C@H](C)C(=O)N[C@H](C)C(=O)N[C@H](CCC(=O)O)C(=O)O` (stereo partly drawn) [N-acetylmuramyl-L-alanyl-D-glutamate], the “inhibition of 2E7 binding to N-acetylmuramyl-L-alanyl-D-isoglutamine conjugated to OVA” value (from here on “inhibition of 2E7 binding”) in experiment [1] is reported as “almost as effectively as N-acetylmuramyl-L-alanyl-D-isoglutamine”.
Take `CC1(C)S[C@@H]2[C@H](NC(=O)[C@H](N)c3ccc(O)cc3)C(=O)N2[C@H]1C(=O)O` [amoxicillin]: the “increase in the blood MP level” value in experiment [2] is 20-60%. The “molecules in culture medium that inhibit 2E7 binding to N-acetylmuramyl-L-alanyl-D-isoglutamine (MPs)” value with Escherichia coli and in the experiment with Staphylococcus aureus was “sharp increase” in each case.
Consider `CC(NC(=O)C(C)OC1C(N)C(O)OC(CO)C1O)C(=O)NC(CCC(=O)O)C(=O)O` [muramyl-L-alanyl-D-glutamate], for which the “inhibition of 2E7 binding” value in experiment [1] is “almost as effectively as N-acetylmuramyl-L-alanyl-D-isoglutamine”.
Regarding muramyl-L-alanyl-D-isoglutamine, the “inhibition of 2E7 binding” value in experiment [1] was “almost as effectively as N-acetylmuramyl-L-alanyl-D-isoglutamine”.
